Data: patent US20260151375A1, “CDK2 INHIBITORS AND METHODS OF USING THE SAME” (Cedilla Therapeutics, Inc., priority 2022, published 2026)

How the values were obtained:
[1] = system: Kuramochi cells; experiment: IncuCyte Kuramochi Assay (cell proliferation); assay type: cell-based; details: 72 h, Kuramochi cells labeled with mApple-H2B, cell count, read-out: IncuCyte - Kuramochi RB-WT: IC50
Description: IncuCyte® assay was used to measure the effect of disclosed compounds on cell proliferation. Fluorescent microscopy images of cells were taken immediately after compound treatment and 72 hours later. Image analysis software was used to obtain cell counts as a function of compound concentration. Kuramochi cells labeled with mApple-H2B were seeded on 384-well assay-ready plates. Plates were placed in an IncuCyte® (Sartorius) and scanned at 0 and 72 hours. IncuCyte® software was used to count the number of fluorescent nuclei in each well. The fold change in cell count from 0 to 72 hours in wells treated with increasing compounds concentrations (10 pts, ½ log dilution, 20 μM top concentration) was normalized to DMSO control wells. The normalized cell counts were fit with dose response curves and a […] was calculated.

[2] = molecular target: T1, CDK2/Cyclin E1 (Homo sapiens, UniProt P24941); experiment: Caliper Assay (LabChip EZ Reader mobility shift assay), inhibition of CDK2/Cyclin E1 activity; assay type: biochemical; details: 2.5 nM CDK2/Cyclin E1(14-475), 100 μM ATP, 30 min preincubation; read-out: Caliper Assay (CDK2/CCNE1): IC50
T1 construct: purchased 14-475
Description: Inhibition of CDK2/Cyclin E1 activity in the presence of compounds of the present disclosure was evaluated using a Caliper LabChip® EZ Reader mobility shift assay. In the assay, activated CDK2/Cyclin E1 catalyzes the phosphorylation of a fluorescently tagged peptide 5-FAM-QSPKKG-CONH2 (PerkinElmer, FL Peptide 18) which induces a difference in capillary electrophoresis mobility. The peptide substrate and product were measured, and the conversion ratio was used to determine the inhibition (as % activity and IC50 values) of CDK2/Cyclin E1. Reactions contained 50 mM HEPES pH 7.5, 10 mM MgCl2, 1 mM EDTA, 2 mM DTT, 0.01% Brij35, 0.5 mg/mL BSA, 0.1% DMSO, 2.5 nM CDK2/Cyclin E1(14-475), 100 μM ATP, and 1.5 μM fluorescent peptide substrate.
Dose titrations of inhibitors in 100% DMSO were combined with 3.25 nM CDK2/Cyclin E1(14-475) and 130 μM of ATP in reaction buffer. The mixtures were incubated for 30 minutes before the addition of fluorescent peptide substrate to initiate the kinase reaction. The final conditions were 2.5 nM CDK2/Cyclin E1(14-475), 100 μM ATP, and 1.5 μM fluorescent peptide. The reactions were stopped after 100 minutes with the addition of EDTA (6 mM final EDTA concentration). The stopped reactions were analyzed on a Caliper LabChip© EZ Reader II. The conversion ratios were normalized to yield % activity, plotted against compound concentration, and fit to a four-parameter equation to determine the IC50 for each compound.

CC1(C)C[C@@H]1C(=O)N1CC2(CN(C(=O)c3cncs3)CC2c2nnc(Cc3ccc4c(c3)CCCO4)o2)C1 (some centres unmarked) [I-71]
IC50 [1]: > 10 µM | IC50 [2]: 1 to 10 µM

CC1(C)C[C@@H]1C(=O)N1CC2(CN(C(=O)c3cncs3)CC2c2nnc(C(F)(F)c3ccc(C#N)cc3)o2)C1 (some centres unmarked) [I-72]
IC50 [1]: > 10 µM | IC50 [2]: 1 to 10 µM

CC1(C)C[C@@H]1C(=O)N1CC2(CN(C(=O)c3cncs3)CC2c2nnc(C(F)(F)c3cccc4ccccc34)o2)C1 (some centres unmarked) [I-73]
IC50 [1]: > 10 µM | IC50 [2]: 0.1 to 1 µM

CC(c1nc(C2CN(C(=O)c3cncs3)CC23CN(C(=O)[C@H]2CC2(C)C)C3)no1)n1ncc2ccccc21 (some centres unmarked) [I-74]
IC50 [1]: > 10 µM | IC50 [2]: 1 to 10 µM

CC(c1nc(C2CN(C(=O)c3cncs3)CC23CN(C(=O)[C@H]2CC2(C)C)C3)no1)n1cc2ccccc2n1 (some centres unmarked) [I-75]
IC50 [1]: > 10 µM | IC50 [2]: 0.1 to 1 µM

CC1(C)C[C@@H]1C(=O)N1CC2(CN(C(=O)c3cncs3)CC2c2nnc(C(F)(F)c3ccc(F)c(F)c3)o2)C1 (some centres unmarked) [I-76]
IC50 [1]: > 10 µM | IC50 [2]: 0.1 to 1 µM

CC(c1cc[nH]n1)c1nc(C2CN(C(=O)c3cncs3)CC23CN(C(=O)[C@H]2CC2(C)C)C3)no1 (stereo partly drawn) [I-77, (8-(5-(1-(1H-pyrazol-3-yl)ethyl)-1,2,4-oxadiazol-3-yl)-2-((S)-2,2-dimethylcyclopropane-1-carbonyl)-2,6-diazaspiro[3.4]octan-6-yl)(thiazol-5-yl)methanone]
IC50 [1]: > 10 µM | IC50 [2]: 1 to 10 µM

CC(c1cccc(C2CCOCC2)n1)c1nnc(C2CN(C(=O)c3cncs3)CC23CN(C(=O)[C@H]2CC2(C)C)C3)o1 (some centres unmarked) [I-78]
IC50 [1]: > 10 µM | IC50 [2]: 0.1 to 1 µM

CC(C)(c1cc[nH]n1)c1nc(C2CN(C(=O)c3cncs3)CC23CN(C(=O)[C@H]2CC2(C)C)C3)no1 (some centres unmarked) [I-79]
IC50 [1]: > 10 µM | IC50 [2]: 1 to 10 µM

O=C(c1cncs1)N1CC(c2nnc(Cc3cccc(C4CCOCC4)n3)o2)C2(C1)CN(c1ncco1)C2 (centres unmarked) [I-80]
IC50 [1]: > 10 µM | IC50 [2]: > 10 µM

CC(c1nc(C2CN(C(=O)c3cncs3)CC23CN(C(=O)[C@H]2CC2(C)C)C3)no1)n1nc(Cl)cc1Cl (some centres unmarked) [I-81]
IC50 [1]: 0.5 to 5 µM | IC50 [2]: 1 to 10 µM

CC(c1nc(C2CN(C(=O)c3cncs3)CC23CN(C(=O)[C@H]2CC2(C)C)C3)no1)n1ccc(C2CCOCC2)n1 (some centres unmarked) [I-82]
IC50 [1]: > 10 µM | IC50 [2]: 0.1 to 1 µM

CC1(C)C[C@@H]1C(=O)N1CC2(CN(C(=O)c3cncs3)CC2c2nnc(Cc3cccc(C4CCCCO4)n3)o2)C1 (some centres unmarked) [I-83]
IC50 [1]: > 10 µM | IC50 [2]: 0.1 to 1 µM

CC1(C)C[C@@H]1C(=O)N1CC2(CN(C(=O)c3cnn(Cc4ccccc4)c3)CC2c2noc(COC3CCCC3)n2)C1 (some centres unmarked) [I-84]
IC50 [1]: > 10 µM | IC50 [2]: 1 to 10 µM

Cc1cc(C)n(Cc2nc(C3CN(C(=O)c4cnn(Cc5ccccc5)c4)CC34CN(C(=O)[C@H]3CC3(C)C)C4)no2)n1 (some centres unmarked) [I-85]
IC50 [1]: > 10 µM | IC50 [2]: 1 to 10 µM

COC(=O)c1coc(C2CN(C(=O)c3cnn(Cc4ccccc4)c3)CC23CN(C(=O)[C@H]2CC2(C)C)C3)n1 (stereo partly drawn) [I-86, methyl 2-(6-(1-benzyl-1H-pyrazole-4-carbonyl)-2-((S)-2,2-dimethylcyclopropane-1-carbonyl)-2,6-diazaspiro[3.4]octan-8-yl)oxazole-4-carboxylate]
IC50 [1]: > 10 µM | IC50 [2]: > 10 µM

CC1(C)C[C@@H]1C(=O)N1CC2(CN(C(=O)c3cnn(Cc4ccccc4)c3)CC2c2ccc(NC(=O)C3CCCCC3)cc2)C1 (stereo partly drawn) [I-87, N-(4-(6-(1-benzyl-1H-pyrazole-4-carbonyl)-2-((S)-2,2-dimethylcyclopropane-1-carbonyl)-2,6-diazaspiro[3.4]octan-8-yl)phenyl)cyclohexanecarboxamide]
IC50 [1]: 5 to 10 µM | IC50 [2]: 1 to 10 µM

C[C@H](NC(=O)c1coc(C2CN(C(=O)c3cnn(Cc4ccccc4)c3)CC23CN(C(=O)[C@H]2CC2(C)C)C3)n1)c1ccccc1 (some centres unmarked) [I-88]
IC50 [1]: > 10 µM | IC50 [2]: 0.1 to 1 µM

C[C@H](NC(=O)c1coc(C2CN(C(=O)c3cnn(Cc4ccccc4)c3)CC23CN(C(=O)[C@H]2CC2(C)C)C3)n1)C1CCCCC1 (some centres unmarked) [I-89]
IC50 [1]: 5 to 10 µM | IC50 [2]: 0.1 to 1 µM

C[C@@H](NC(=O)c1coc(C2CN(C(=O)c3cnn(Cc4ccccc4)c3)CC23CN(C(=O)[C@H]2CC2(C)C)C3)n1)C1CCCCC1 (some centres unmarked) [I-90]
IC50 [1]: 5 to 10 µM | IC50 [2]: 0.01 to 0.1 µM

CC1(C)C[C@@H]1C(=O)N1CC2(CN(C(=O)c3cnn(Cc4ccccc4)c3)CC2c2nc(C(=O)NCc3ccccc3)co2)C1 (stereo partly drawn) [I-91, N-benzyl-2-(6-(1-benzyl-1H-pyrazole-4-carbonyl)-2-((S)-2,2-dimethylcyclopropane-1-carbonyl)-2,6-diazaspiro[3.4]octan-8-yl)oxazole-4-carboxamide]
IC50 [1]: > 10 µM | IC50 [2]: 0.1 to 1 µM

CC1(C)C[C@@H]1C(=O)N1CC2(CN(C(=O)c3cnn(Cc4ccccc4)c3)CC2c2nc(C(=O)NCC3CCCCC3)co2)C1 (some centres unmarked) [I-92]
IC50 [1]: 5 to 10 µM | IC50 [2]: 0.01 to 0.1 µM

CC1(C)C[C@@H]1C(=O)N1CC2(CN(C(=O)c3cnn(Cc4ccccc4)c3)CC2c2ccc(NCc3ccccc3)cc2)C1 (stereo partly drawn) [I-93, (1-benzyl-1H-pyrazol-4-yl)(8-(4-(benzylamino)phenyl)-2-((S)-2,2-dimethylcyclopropane-1-carbonyl)-2,6-diazaspiro[3.4]octan-6-yl)methanone]
IC50 [1]: 5 to 10 µM | IC50 [2]: 1 to 10 µM

CC(c1nnc(C2CN(C(=O)c3cncs3)CC23CN(C(=O)[C@H]2CC2(C)C)C3)o1)n1ccc(C2CCCC2)n1 (some centres unmarked) [I-96]
IC50 [1]: > 10 µM | IC50 [2]: 0.01 to 0.1 µM

CC1(C)C[C@@H]1C(=O)N1CC2(CN(C(=O)c3cncs3)CC2c2nnc(C3(c4cccc(C5CCOCC5)n4)COC3)o2)C1 (some centres unmarked) [I-97]
IC50 [1]: > 10 µM | IC50 [2]: 0.1 to 1 µM

CC1(C)C[C@@H]1C(=O)N1CC2(C1)CN(c1cccc3ncsc13)CC2c1nnc(C(F)(F)c2ccc(Cl)c(Cl)c2)o1 (stereo partly drawn) [I-98, (6-(benzo[d]thiazol-7-yl)-8-(5-((3,4-dichlorophenyl)difluoromethyl)-1,3,4-oxadiazol-2-yl)-2,6-diazaspiro[3.4]octan-2-yl)((S)-2,2-dimethylcyclopropyl)methanone]
IC50 [1]: > 10 µM | IC50 [2]: > 10 µM

O=C(c1cncs1)N1CC(c2nnc(Cc3ccc(Cl)c(Cl)c3)o2)C2(C1)CN(c1nccc(C(F)(F)F)n1)C2 (centres unmarked) [I-99]
IC50 [1]: > 10 µM | IC50 [2]: > 10 µM

CC(c1coc(C2CCCC2)n1)c1nc(C2CN(C(=O)c3cncs3)CC23CN(C(=O)[C@H]2CC2(C)C)C3)no1 (some centres unmarked) [I-100]
IC50 [1]: 5 to 10 µM | IC50 [2]: 0.1 to 1 µM

CC1(C)C[C@@H]1C(=O)N1CC2(C1)CN(c1cccc3ncsc13)CC2c1nnc(Cc2ccc(Cl)c(Cl)c2)o1 (stereo partly drawn) [I-101, (6-(benzo[d]thiazol-7-yl)-8-(5-(3,4-dichlorobenzyl)-1,3,4-oxadiazol-2-yl)-2,6-diazaspiro[3.4]octan-2-yl)((S)-2,2-dimethylcyclopropyl)methanone]
IC50 [1]: > 10 µM | IC50 [2]: > 10 µM

CC(C)(c1cccc(C2CCOCC2)n1)c1nnc(C2CN(C(=O)c3cncs3)CC23CN(C(=O)[C@H]2CC2(C)C)C3)o1 (some centres unmarked) [I-102]
IC50 [1]: > 10 µM | IC50 [2]: 0.01 to 0.1 µM

Cc1nc(C)c(C(=O)N2CC(c3nnc(C(F)(F)c4ccc(Cl)c(Cl)c4)o3)C3(C2)CN(C(=O)[C@H]2CC2(F)F)C3)s1 (stereo partly drawn) [I-103, (8-(5-((3,4-dichlorophenyl)difluoromethyl)-1,3,4-oxadiazol-2-yl)-2-((R)-2,2-difluorocyclopropane-1-carbonyl)-2,6-diazaspiro[3.4]octan-6-yl)(2,4-dimethylthiazol-5-yl)methanone]
IC50 [1]: > 10 µM | IC50 [2]: > 10 µM

Cc1nc(C)c(C(=O)N2CC(c3nnc(C(C)c4cccc(C5(C(F)(F)F)CC5)n4)o3)C3(C2)CN(C(=O)[C@H]2CC2(C)C)C3)s1 (some centres unmarked) [I-104]
IC50 [1]: > 10 µM | IC50 [2]: 0.1 to 1 µM

CC1(C)C[C@@H]1C(=O)N1CC2(C1)CN(c1ncnc3ncsc13)CC2c1nnc(Cc2cccc(C3CCOCC3)n2)o1 (stereo partly drawn) [I-105, ((S)-2,2-dimethylcyclopropyl)(8-(5-((6-(tetrahydro-2H-pyran-4-yl)pyridin-2-yl)methyl)-1,3,4-oxadiazol-2-yl)-6-(thiazolo[4,5-d]pyrimidin-7-yl)-2,6-diazaspiro[3.4]octan-2-yl)methanone]
IC50 [1]: > 10 µM | IC50 [2]: > 10 µM

O=C(c1cncs1)N1CC(c2nc3ccc(Oc4ccccc4)cc3o2)C2(C1)CN(C(=O)[C@H]1CC1(F)F)C2 (stereo partly drawn) [I-144, (2-((R)-2,2-difluorocyclopropane-1-carbonyl)-8-(6-phenoxybenzo[d]oxazol-2-yl)-2,6-diazaspiro[3.4]octan-6-yl)(thiazol-5-yl)methanone]
IC50 [1]: > 10 µM | IC50 [2]: 1 to 10 µM
